For orientation: melting point means the temperature of the solid-liquid transition.

In brackets after ≈: the same amount, converted by molar mass.

Data set [1] concerns CCRF/CEM (human leukemia). Description: Antiproliferative assay in vitro (MTT). The data set is classed as cell-based. To be noted: Homo sapiens, CCRF-CEM, read-out: Cytotoxic activity IC50, Human CCRF/CEM. As to the method:
(§1) Cytotoxic activities of all newly synthesized compounds including betulin (1) were tested in SRB or MTT (in the case of leukemia cells) assay for their antiproliferative activity in vitro against three human cancer cell lines: SW707 (colorectal adenocarcinoma), CCRF/CEM (leukemia), T47D (breast cancer), and murine leukemia P388 as well as Balb3T3 normal fibroblasts cell lines. […] A value of less than 4 μg/mL was considered as an antiproliferative activity criterion for synthetic compounds [31].
(§2) The following established in vitro cell lines were applied: SW707 (human colorectal adenocarcinoma), CCRF/CEM (human leukemia), T47D (human breast cancer), P388 (mouse leukemia) and Balb3T3 (normal mouse fibroblasts). All lines were obtained from the American Type Culture Collection (Rockville, MD, USA) and maintained at the Cell Culture Collection of the Institute of Immunology and Experimental Therapy (Wroclaw, Poland).
(§3) Twenty-four hours before addition of the tested agents, the cells were plated in 96-well plates (Sarstedt, Numbrecht, Germany) at a density of 10^4 cells per well in 100 μL of culture medium. The cells were cultured in the opti-MEM medium supplemented with 2 mM glutamine (Gibco, Grand Island, NY, USA), streptomycin (50 μg/mL), penicillin (50 U/mL) (both antibiotics from Polfa, Tarchomin, Poland) and 5% fetal calf serum (Gibco). The cell cultures were maintained at 37 °C in humid atmosphere saturated with 5% CO2.
(§4) The compounds were dissolved in DMSO and culture medium (1:9) to the concentration of 1 mg/mL, and subsequently diluted in culture medium to reach the required concentrations (ranging from […]).
(§5) The in vitro cytotoxic effect of all agents was examined using the SRB assay for adherent cells and MTT assay for leukemia cells as described by Wietrzyk et al.. Each compound in given concentration was tested in triplicates in each experiment, which was repeated 3–5 times.

The subject of the next data set is P388 (mouse leukemia). Description: Antiproliferative assay in vitro (MTT). The data set is classed as cell-based. To be noted: for IC50: Mus musculus, P388, read-out: Cytotoxic activity IC50, Murine P388. How it is done: as §1, §2, §3, §4, §5
Data set [2] deals with investigated cancer cell lines (T47D, CCRF/CEM, SW707, P388, Balb3T3). In words: cells. The data set is classed as cell-based, human and murine. How it is done: as §1, §2, §3, §4, §5
Data set [3] in a line: Antiproliferative assay in vitro (SRB). The data set is classed as cell-based, mouse. To be noted: mouse; Balb3T3 normal fibroblasts; SRB; Neg = negative in the concentration used; read-out: Cytotoxic activity IC50, Murine Balb3T3. As to the method: as §1, §2, §3, §4, §5
Data set [4] deals with T47D (human breast cancer). Description: Antiproliferative assay in vitro (SRB). The settings on record: for IC50: Homo sapiens, T47D, read-out: Cytotoxic activity IC50, Human T47D. The data set is classed as cell-based. How it is done: as §1, §2, §3, §4, §5
For data set [5], the system named is SW707 (human colorectal adenocarcinoma). Description: Antiproliferative assay in vitro (SRB). The data set is classed as cell-based. The settings on record: for IC50: Homo sapiens, SW707, read-out: Cytotoxic activity IC50, Human SW707. As to the method: as §1, §2, §3, §4, §5
Data set [6] deals with Balb3T3 (normal mouse fibroblasts). In words: Antiproliferative assay in vitro (SRB). The data set is classed as cell-based. How it is done:
as §1, §2, §3, §4, §5

As for `C=C(C)[C@@H]1CC[C@]2(CO)CC[C@]3(C)[C@H](CC[C@@H]4[C@@]5(C)CC[C@H](O)C(C)(C)[C@@H]5CC[C@]43C)[C@@H]12` [Compound 1, lup-20(29)-ene-3β,28-diol, reference compound], the IC50 in data set [1] was 10.9 ± 5.5 mg/L (≈ 24.6 µM); in the data set on P388 (mouse leukemia) it was 5.5 ± 3.3 mg/L (≈ 12.4 µM); in data set [2] (Mus musculus, all cell lines except leukemia P388, read-out: IC50 values range over investigated cell lines), 10.9 to 47.3 mg/L (≈ 24.6 to 107 µM); in data set [3] it was 47.3 ± 7.9 mg/L (≈ 107 µM); in data set [4] it was 32.4 ± 10.7 mg/L (≈ 73.2 µM); in data set [5], 22.9 ± 15.4 mg/L (≈ 51.7 µM). For the same molecule, the “selectivity index (SI)” value in the data set with P388 (mouse leukemia) (ratio IC50 of normal fibroblast (Balb3T3) / IC50 on P388) is on record as 8.6.

For the molecule `C#CCOC(=O)OC[C@]12CCC(C(=C)C)C1C1CCC3[C@@]4(C)CC[C@H](O)C(C)(C)C4CC[C@@]3(C)[C@]1(C)CC2` (some centres unmarked) [Compound 3a, 28-O-Propargyloxycarbonylbetulin], the IC50 amounted to 3.2 ± 0.4 mg/L (≈ 6.1 µM) in data set [1], 2.9 ± 0.2 mg/L (≈ 5.53 µM) with P388 (mouse leukemia), 7.2 ± 1.7 mg/L (≈ 13.7 µM) in data set [4] and 9.2 ± 7.1 mg/L (≈ 17.5 µM) in data set [5]. Also, in data set [2], the “cytotoxicity relative to betulin (1)” value is “three to four times more cytotoxic than betulin”.

For the molecule `C=C(C)C1CC[C@]2(COC(=O)C#Cc3ccccc3)CC[C@]3(C)C(CCC4[C@@]5(C)CC[C@H](O)C(C)(C)C5CC[C@]43C)C12` (some centres unmarked) [Compound 5b, 28-O-Phenylpropynoylbetulin], the melting point is 204 to 206 °C. Also, the IC50 in data set [1] was found to be 49 ± 9.8 mg/L (≈ 85.8 µM). The “Cytotoxic activity IC50, Murine P388” value in the data set on P388 (mouse leukemia) was “Neg”. The “cytotoxic activity in words” value in data set [2] is “inactive”. Moreover, in data set [6], the “Cytotoxic activity IC50, Murine Balb3T3” value was “Neg”. Besides, the “Cytotoxic activity IC50, Human T47D” value in data set [4] was “Neg”. Further, the “Cytotoxic activity IC50, Human SW707” value in data set [5] was “Neg”.

Consider `C=C(C)C1CC[C@]2(COC(=O)C#Cc3ccccc3)CC[C@]3(C)C(CCC4[C@@]5(C)CC[C@H](OC(=O)C#Cc6ccccc6)C(C)(C)C5CC[C@]43C)C12` (some centres unmarked) [Compound 6b, 3,28-O,O'-Di(phenylpropynoyl)betulin], for which the melting point was in the range of 91 to 92 °C. Moreover, the IC50 in data set [1] turned out to be 66 ± 2.8 mg/L (≈ 94.4 µM). Also, in the data set with P388 (mouse leukemia), the “Cytotoxic activity IC50, Murine P388” value is reported as “Neg”. The “cytotoxic activity in words” value in data set [2] was “inactive”. Also, the “Cytotoxic activity IC50, Murine Balb3T3” value in data set [6] was “Neg”. The “Cytotoxic activity IC50, Human T47D” value in data set [4] was “Neg”. For the same molecule, in data set [5], the “Cytotoxic activity IC50, Human SW707” value was “Neg”.

These data come from article PMC6270304, “Synthesis, Structure and Cytotoxic Activity of New Acetylenic Derivatives of Betulin” (Molecules, 2013).
